pIC50: −log10 of the molar value. Where a name gives a salt, the structure may show the parent alone. Read-outs that look alike come from different tables or passages of the source.

18 compounds from patent publication US20250066371A1, “FLUOROALKOXYALKYLENE-DIHYDROIMIDAZO[5,1-D]TETRAZINONE COMPOUNDS AND RELATED COMPOUNDS AND THEIR USE IN TREATING MEDICAL CONDITIONS” (priority 2023, published 2025) can be followed below.

What all share (assay type): cell-based
Experiment [1] has as its system LN229 gliobastoma cells MGMT+/MMR−. The experiment is described as follows: Anti-cancer assay, isogenic LN229 cells, nuclei count (Example 43). The note with it: Homo sapiens, read-out: MGMT+ MMR− Activity. The source says:
(§1) Cytotoxicity of the compounds may be measured in short-term cell viability assays against four isogenic LN229 glioblastoma cell lines engineered to be proficient or deficient in MGMT and/or MMR activity by using short hairpin RNAs (shRNAs) targeting MSH2. This approach allows for determination of the relationship between MGMT status, MMR status, and compound activity. LN229 cells are maintained in Dulbecco's Modified Eagle Medium (DMEM) supplemented with 10% fetal bovine serum, 1% Penicillin/Streptomycin, and 0.1% Fungin. DAY 0: Cells are plated into sterile 96-well plates (Corning Costar 96-well) at a concentration of 500 cells/well using a Multichannel pipettor. Then, assay plates are incubated overnight in a 37° C. 5% CO2 incubator. DAY 1: Compounds are prepared as 50 mM stocks in dimethyl sulfoxide (DMSO) and stored protected from light at room temperature (RT) until use. Prior to compound addition, a two-fold serial dilution of compound stock solutions is performed in DMSO from 30 mM to 0.117 mM in a 96-well Master plate. Vehicle control wells contain DMSO. 97 μL of media is added to each well of a new 96-well plate (Daughter plate) and 3 μL of drug solution from Master plate is added to corresponding wells in the Daughter plate resulting in a 3× plate. Three replicate dilution curves of each compound are run on each assay plate. The final concentration of compounds ranges from 300 μM to 1.171 μM (9-point, 2-fold dilution dose response curve), and the final DMSO concentration is 1%.
(§2) Assay plates are incubated for 120 hours at 37° C. in a humidified 5% CO2 incubator. DAY 5: Following incubation, cells are fixed with 4% paraformaldehyde and stained with Hoechst dye for nuclei visualization. Fixation, staining and washing is performed by using a Thermo Scientific Multidrop Combi. Images are acquired on a BioTek Cytation 5 Cell Imaging Multimode Reader and quantified using Cell Profiler image analysis software. Raw cell count data for test compounds are normalized to percent viability relative to the DMSO vehicle control.
(§3) Isogenic LN229 gliobastoma cells were maintained in Dulbecco's Modified Eagle Medium (DMEM) supplemented with 10% fetal bovine serum, 1% Penicillin/Streptomycin, and 0.1% Fungin. DAY 0: Cells were plated into sterile 96-well plates (Corning Costar 96-well) at a concentration of 500 cells/well using a Multichannel pipettor. Then, assay plates were incubated overnight in a 37° C. 5% CO2 incubator. DAY 1: Compounds were prepared as 50 mM stocks in dimethyl sulfoxide (DMSO) and stored protected from light at room temperature (RT) until use. Prior to compound addition, a two-fold serial dilution of compound stock solutions was performed in DMSO from 30 mM to 0.117 mM in a 96-well Master plate. Vehicle control wells contained DMSO. 97 μL of media was added to each well of a new 96-well plate (Daughter plate) and 3 μL of drug solution from Master plate was added to corresponding wells in the Daughter plate resulting in a 3× plate. Three replicate dilution curves of each compound were run on each assay plate. The final concentration of compounds ranged from 300 μM to 1.171 μM (9-point, 2-fold dilution dose response curve), and the final DMSO concentration was 1%.
(§4) Assay plates were incubated for 120 hours at 37° C. in a humidified 5% CO2 incubator. DAY 5: Following incubation, cells were fixed with 4% paraformaldehyde and stained with Hoechst dye for nuclei visualization. Fixation, staining and washing was performed by using a Thermo Scientific Multidrop Combi. Images were acquired on a BioTek Cytation 5 Cell Imaging Multimode Reader and quantified using Cell Profiler image analysis software. Raw cell count data for test compounds were normalized to percent viability relative to the DMSO vehicle control.

For experiment [2], the system named is LN229 gliobastoma cells MGMT+/MMR+. The experiment is described as above. The note with it: Homo sapiens, read-out: MGMT+ MMR+ Activity.
Excerpt: as §1, §2, §3, §4

The subject of experiment [3] is LN229 gliobastoma cells MGMT−/MMR−. The experiment in a line: Anti-cancer assay, isogenic LN229 cells, nuclei count (Examples 43, 46). The settings on record: Homo sapiens, read-out: MGMT− MMR− Activity.
Excerpt: as §1, §2, §3
(§5) Assay plates were incubated for 120 hours at 37° C. in a humidified 5% CO2 incubator. DAY 5: Following incubation, cells were fixed with 4% paraformaldehyde and stained with Hoechst dye for nuclei visualization. Fixation, staining and washing was performed by using a Thermo Scientific Multidrop Combi. Images were acquired on a BioTek Cytation 5 Cell Imaging Multimode Reader and quantified using Cell Profiler image analysis software. Raw cell count data for test compounds were normalized to percent viability relative to the DMSO vehicle control. […]

Experiment [4] relates to LN229 gliobastoma cells MGMT−/MMR+. The description is as above. The settings on record: Homo sapiens, read-out: MGMT− MMR+ Activity.
Excerpt: as §1, §2, §3, §5

[5] abbreviates: LN-229, LN229 MGMT+/MMR−, 120 hours.
[6] abbreviates: LN-229, LN229 MGMT+/MMR+, 120 hours.
[7] abbreviates: LN-229, LN229 MGMT−/MMR−, 120 hours.
Setting [8] is: LN-229, LN229 MGMT−/MMR+, 120 hours.

As for `CCNC(=O)c1ncn2c(=O)n(CCOC(F)(F)F)nnc12` [Compound I-3, N-Ethyl-4-oxo-3-(2-(trifluoromethoxy)ethyl)-3,4-dihydroimidazo[5,1-d][1,2,3,5]tetrazine-8-carboxamide], the pIC50 in experiment [1] (LN-229, 120 h) is below 4.00; in experiment [2] (LN-229, 120 h) it was below 4.00; in experiment [3] (LN-229, 120 h), 4.00 to 4.30; in experiment [4] (LN-229, 120 h), 4.00 to 4.30.
As to `CN(C)C(=O)c1ncn2c(=O)n(CCOC(F)(F)F)nnc12` [Compound I-4, N,N-Dimethyl-4-oxo-3-(2-(trifluoromethoxy)ethyl)-3,4-dihydroimidazo[5,1-d][1,2,3,5]tetrazine-8-carboxamide], the pIC50 in experiment [1] (setting [5]) is 4.30 to 4.70; in experiment [2] (setting [6]), 4.00 to 4.30; in experiment [3] (setting [7]) it was 4.30 to 4.70; in experiment [4] (setting [8]), 4.30 to 4.70.
For `O=C(NC1CCCC1)c1ncn2c(=O)n(CCOC(F)(F)F)nnc12` [Compound I-5, N-Cyclopentyl-4-oxo-3-(2-(trifluoromethoxy)ethyl)-3,4-dihydroimidazo[5,1-d][1,2,3,5]tetrazine-8-carboxamide], the pIC50 is below 4.00 in experiment [1] (setting [5]), below 4.00 in experiment [2] (setting [6]), 4.30 to 4.70 in experiment [3] (setting [7]) and 4.00 to 4.30 in experiment [4] (setting [8]).
On to `O=C(NC1CC1)c1ncn2c(=O)n(CCOC(F)(F)F)nnc12` [Compound I-6, N-Cyclopropyl-4-oxo-3-(2-(trifluoromethoxy)ethyl)-3,4-dihydroimidazo[5,1-d][1,2,3,5]tetrazine-8-carboxamide], for which the pIC50 in experiment [1] (setting [5]) is above 4.70; in experiment [2] (setting [6]) it was 4.30 to 4.70; in experiment [3] (setting [7]), 4.30 to 4.70; in experiment [4] (setting [8]) it was above 4.70.
As for `O=C(c1ncn2c(=O)n(CCOC(F)(F)F)nnc12)N1CCCC1` [Compound I-7, 8-(Pyrrolidine-1-carbonyl)-3-(2-(trifluoromethoxy)ethyl)imidazo[5,1-d][1,2,3,5]tetrazin-4(3H)-one], the pIC50 in experiment [1] (setting [5]) is 4.00 to 4.30; in experiment [2] (setting [6]) it was 4.30 to 4.70; in experiment [3] (setting [7]), 4.30 to 4.70; in experiment [4] (setting [8]) it was 4.30 to 4.70.
As to `O=C(Nc1ccccn1)c1ncn2c(=O)n(CCOC(F)(F)F)nnc12` [Compound I-8, 4-Oxo-N-(2-pyridyl)-3-[2-(trifluoromethoxy)ethyl]imidazo[5,1-d][1,2,3,5]tetrazine-8-carboxamide], the pIC50 in experiment [1] (setting [5]) is below 4.00; in experiment [2] (setting [6]) it was below 4.00; in experiment [3] (setting [7]), 4.30 to 4.70; in experiment [4] (setting [8]) it was 4.00 to 4.30.
As for `O=C(Nc1ccccc1)c1ncn2c(=O)n(CCOC(F)(F)F)nnc12` [Compound I-9, 4-Oxo-N-phenyl-3-(2-(trifluoromethoxy)ethyl)-3,4-dihydroimidazo[5,1-d][1,2,3,5]tetrazine-8-carboxamide], the pIC50 in experiment [1] (LN-229, 120 h) was below 4.00; in experiment [2] (LN-229, 120 h), 4.00 to 4.30; in experiment [3] (LN-229, 120 h), above 4.70; in experiment [4] (LN-229, 120 h), 4.30 to 4.70.
`CN1CCN(C(=O)c2ncn3c(=O)n(CCOC(F)(F)F)nnc23)CC1` [Compound I-10, 8-(4-Methylpiperazine-1-carbonyl)-3-(2-(trifluoromethoxy)ethyl)imidazo[5,1-d][1,2,3,5]tetrazin-4(3H)-one]: the pIC50 in experiment [1] (setting [5]) was 4.00 to 4.30; in experiment [2] (setting [6]) it was 4.00 to 4.30; in experiment [3] (setting [7]), 4.30 to 4.70; in experiment [4] (setting [8]), 4.30 to 4.70.
In the case of `CN(C)CCN(C)C(=O)c1ncn2c(=O)n(CCOC(F)(F)F)nnc12` [Compound I-11, N-(2-(Dimethylamino)ethyl)-N-methyl-4-oxo-3-(2-(trifluoromethoxy)ethyl)-3,4-dihydroimidazo[5,1-d][1,2,3,5]tetrazine-8-carboxamide], the pIC50 in experiment [1] (LN-229, 120 h) is 4.00 to 4.30; in experiment [2] (LN-229, 120 h), 4.00 to 4.30; in experiment [3] (LN-229, 120 h) it was above 4.70; in experiment [4] (LN-229, 120 h) it was above 4.70.
For the compound `NCCNC(=O)c1ncn2c(=O)n(CCOC(F)(F)F)nnc12` [Compound I-12, Hydrochloride Salt of N-(2-Aminoethyl)-4-oxo-3-(2-(trifluoromethoxy)ethyl)-3,4-dihydroimidazo[5,1-d][1,2,3,5]tetrazine-8-carboxamide], the pIC50 in experiment [1] (setting [5]) was below 4.00; in experiment [2] (setting [6]), below 4.00; in experiment [3] (setting [7]) it was 4.30 to 4.70; in experiment [4] (setting [8]), 4.00 to 4.30.
In the case of `NC(=O)c1ncn2c(=O)n(CCCOCC(F)(F)F)nnc12` [Compound I-22], the pIC50 in experiment [1] (setting [5]), in experiment [2] (setting [6]), in experiment [3] (setting [7]) and in experiment [4] (setting [8]) was below 4.00 in each case.
Regarding `NC(=O)c1ncn2c(=O)n(COC(C(F)(F)F)C(F)(F)F)nnc12` [Compound I-23], the pIC50 in experiment [1] (setting [5]), in experiment [2] (setting [6]), in experiment [3] (setting [7]) and in experiment [4] (setting [8]) was below 4.00 in each case.
In the case of `CNC(=O)c1ncn2c(=O)n(CCOC(F)(F)F)nnc12` [Compound I-26], the pIC50 was below 4.00 in experiment [1] (setting [5]), below 4.00 in experiment [2] (setting [6]), above 4.70 in experiment [3] (setting [7]) and 4.30 to 4.70 in experiment [4] (setting [8]).
On to `[2H]C([2H])(OC(F)(F)F)C([2H])([2H])n1nnc2c(C(N)=O)ncn2c1=O` [Compound I-29, 4-Oxo-3-(2-(trifluoromethoxy)ethyl-1,1,2,2-d4)-3,4-dihydroimidazo[5,1-d][1,2,3,5]tetrazine-8-carboxamide], for which the pIC50 in experiment [1] (setting [5]) is below 4.00; in experiment [2] (setting [6]), below 4.00; in experiment [3] (setting [7]), above 4.70; in experiment [4] (setting [8]), 4.30 to 4.70.
For `CCOC(=O)c1ncn2c(=O)n(CCOC(F)(F)F)nnc12` [Compound I-30, Ethyl 4-Oxo-3-(2-(trifluoromethoxy)ethyl)-3,4-dihydroimidazo[5,1-d][1,2,3,5]tetrazine-8-carboxylate], the pIC50 in experiment [1] (LN-229, 120 h) is below 4.00; in experiment [2] (LN-229, 120 h) it was below 4.00; in experiment [3] (LN-229, 120 h) it was above 4.70; in experiment [4] (LN-229, 120 h), below 4.00.
As to `NC(=S)c1ncn2c(=O)n(CCOC(F)(F)F)nnc12` [Compound I-31, 4-Oxo-3-(2-(trifluoromethoxy)ethyl)-3,4-dihydroimidazo[5,1-d][1,2,3,5]tetrazine-8-carbothioamide], the pIC50 in experiment [1] (setting [5]) was below 4.00; in experiment [2] (setting [6]), below 4.00; in experiment [3] (setting [7]) it was above 4.70; in experiment [4] (setting [8]), 4.30 to 4.70.
As to `N=C(N)c1ncn2c(=O)n(CCOC(F)(F)F)nnc12` [Compound I-34, 4-Oxo-3-(2-(trifluoromethoxy)ethyl)-3,4-dihydroimidazo[5,1-d][1,2,3,5]tetrazine-8-carboximidamide], the pIC50 in experiment [1] (setting [5]) was 4.00 to 4.30; in experiment [2] (setting [6]), 4.00 to 4.30; in experiment [3] (setting [7]), above 4.70; in experiment [4] (setting [8]) it was above 4.70.
`O=c1n(CCOC(F)(F)F)nnc2c(Cl)ncn12` [Compound I-39, 8-Chloro-3-(2-(trifluoromethoxy)ethyl)imidazo[5,1-d][1,2,3,5]tetrazin-4(3H)-one]: the pIC50 in experiment [1] (setting [5]) was 4.30 to 4.70; in experiment [2] (setting [6]), above 4.70; in experiment [3] (setting [7]), above 4.70; in experiment [4] (setting [8]) it was above 4.70.
